What all share (type): in vivo, BALB/c mice
Assay [1] deals with F4/80+ cells (macrophages). Nature of the assay: Uptake of FAM-labeled long chain peptide antigens in individual animals, regional lymph node macrophages. To be noted: FIG. 9, complexed with CHP, subcutaneous, 16 hours after administration. As for the experimental part:
The same FAM-labeled long chain peptide antigens as those in FIG. 8 were complexed with CHP and administered subcutaneously to mice. After 16 hours, cells were collected from a regional lymph node of the administration site, and the fluorescence uptakes into dendritic cells and mouse macrophages were measured by flow cytometry with the P4 fraction in the figure being deemed to correspond to the dendritic cells and the P5 fraction in the figure being deemed to correspond to the macrophages.
A test of uptake of long chain peptide antigens by antigen-presenting cells in individual animals was performed as follows. Each long chain peptide was fluorescence-labeled, complexed with a CHP nanogel, administered subcutaneously to BALB/c mice. 16 hours after administration, cells were collected from lymph nodes and after staining with the anti-CD11c antibody and the anti-F4/80 antibody, the uptake of the fluorescence-labeled long chain peptide antigens by CD11c^+ cells (dendritic cells) and F4/80^+ cells (macrophages) was analyzed by flow cytometry.

Assay [2] concerns CD8+ T cells specific to MA p265, NY p81 and mERK2 9m. Nature of the assay: Specific CD8+ T cell induction by CHP/long chain peptide vaccines in mice, intracellular cytokine staining of spleen cells. As to conditions: for induction of specific CD8+ T cells corresponding to all three types of epitopes: FIG. 1, MEN antigens complexed with CHP, subcutaneous, CpG oligo DNA adjuvant, spleen cells one week after final administration. An excerpt:
Long chain peptide antigens MEN, all containing three types of mouse CD8+ T cell epitope sequences (MA p265 (Sequence No. 27), NY p81 (Sequence No. 29), and mERK2 9m (Sequence No. 28)), were synthesized. The interepitope sequences between the respective epitopes were respectively six consecutive tyrosines (Y6) (Sequence No. 1), six consecutive glycines (G6) (Sequence No. 2), six consecutive prolines (P6) (Sequence No. 3), or six consecutive threonines (T6) (Sequence No. 4). Each long chain peptide antigen was complexed with cholesterol-modified pullulan (CHP), which is a type of delivery system, and administered as a vaccine to a mouse. In the process of administration, CpG oligo DNA was coadministered as an adjuvant. Spleen cells were collected one week after the final administration and the frequencies of CD8+ T cells specific to the respective epitope sequences were measured by an intracellular cytokine staining method.
Long chain peptide antigens NME, all containing three types of mouse CD8+ T cell epitope sequences (MA p265 (Sequence No. 27), NY p81 (Sequence No. 29), and mERK2 9m (Sequence No. 28)), were synthesized. The antigens differ from the MEN sequences shown in FIG. 1 in the order of the three types of epitopes. The interepitope sequences between the respective epitopes were respectively six consecutive tyrosines (Y6) (Sequence No. 5), six consecutive glycines (G6) (Sequence No. 6), or six consecutive prolines (P6) (Sequence No. 7). Vaccines containing the respective long chain peptide antigens were administered to mice in the same manner as in FIG. 1 and the frequencies of CD8+ T cells specific to the respective epitope sequences were measured by the intracellular cytokine staining method.
Long chain peptide antigens MEN, ENM, and NME, all containing three types of mouse CD8+ T cell epitope sequences (MA p265 (Sequence No. 27), NY p81 (Sequence No. 29), and mERK2 9m (Sequence No. 28)), were synthesized. MEN, ENM, and […] in the order of the three types of epitopes. The interepitope sequences between the respective epitopes were each six consecutive tyrosines (Y6) (Sequence Nos. 1, 5 and 8). Vaccines containing the respective long chain peptide antigens were administered to mice in the same manner as in FIG. 1 and the frequencies of CD8+ T cells specific to the respective epitope sequences were measured by the intracellular cytokine staining method.
Each long chain peptide was dissolved in dimethyl sulfoxide (DMSO) at a concentration of 10 mg/mL. CHP was dissolved in 6 M urea-containing phosphate buffered saline (PBS) at a concentration of 10 mg/mL 1 mL (10 mg) of the long chain peptide solution and 20 mL (200 mg) of the CHP solution were mixed and left to stand at room temperature overnight in a dark place. The liquid mixture was transferred into a dialysis membrane (molecular weight cutoff: 3,500; Thermo Fisher Scientific, Inc.) and dialyzed for 2 hours to overnight at 4° C. against 0.6 M urea-containing PBS of a volume ratio of not less than 100 times as the dialysis outer solution. Dialysis was then performed for 2 hours to overnight at 4° C. against 0.06 M urea-containing PBS of a volume ratio of not less than 100 times as the dialysis outer solution. Dialysis was performed again for 2 hours to overnight at 4° C. against PBS of a volume ratio of not less than 100 times as the dialysis outer solution. The dialyzed inner solution was collected, filtered through a filtration sterilization filter of 0.45 μm or 0.22 μm pore size, and thereafter the UV absorption at 280 nm was measured to determine the final concentration of the long chain peptide from its molecular extinction coefficient.
Each CHP/long chain peptide complex as the vaccine and the CpG oligo DNA as the adjuvant were administered at the same time to a mouse. Administration was performed by subcutaneous injection on the back of the mouse. […]

Assay [3] has as its system mouse fibrosarcoma cell line CMS5a. Nature of the assay: Mouse tumor growth test. As to conditions: FIG. 2; single dose of vaccine with CpG oligo DNA before subcutaneous CMS5a implantation (prophylactic condition); Student's t test. From the text: Long chain peptide antigens MEN, all containing three types of mouse CD8+ T cell epitope sequences (MA p265 (Sequence No. 27), NY p81 (Sequence No. 29), and mERK2 9m (Sequence No. 28)), were synthesized. The interepitope sequences between the respective epitopes were respectively six consecutive tyrosines (Y6) (Sequence No. 1), six consecutive glycines (G6) (Sequence No. 2), or six consecutive prolines (P6) (Sequence No. 3). Each long chain peptide antigen was complexed with CHP and administered in a single dose as a vaccine to a mouse. As a control, a short chain peptide vaccine, constituted of just the mERK2 9m peptide, was mixed with Freund's incomplete adjuvant and administered. In the process of administration, CpG oligo DNA was coadministered as an adjuvant. On the day after administration, a mouse fibrosarcoma cell line CMS5a, expressing mERK2 as a tumor antigen and presenting the CD8+ T cell epitope mERK2 9m derived from the same antigen, was implanted subcutaneously and its growth was recorded over time.
A subcloned CMS5a cell line, obtained from a CMS5 cell line isolated from fibrosarcoma induced by administering 3-methylcholanthrene to a BALB/c mouse, expresses mutant ERK2 (mERK2) as a tumor antigen and presents a CD8^+ T cell epitope derived from the mERK2. The CMS5a cell line cultured in a T75 flask (Nunc) was detached using PBS containing 0.5% trypsin and collected in RPMI1640 medium containing 10% FBS. After centrifuging (400×g, 5 minutes, 4° C.), the supernatant was removed, and the cells were rinsed twice with RPMI1640 medium, thereafter suspended in RPMI1640 medium at a concentration of 1×10^6 cells/100 μL, and implanted subcutaneously in BALB/c mice at a dose of 100 μL/individual. The CHP/long chain peptide complexes and the adjuvant were administered 7 days before tumor implantation (prophylactic condition). After tumor implantation, the length and breadth of the tumor were measured and the product thereof was recorded as tumor size. The data in the tumor growth test were compared by Student's t test using Microsoft® Excel® (Microsoft Corporation).

Assay [4] concerns mERK2 9m specific CD8+ T cells. Nature of the assay: Specific CD8+ T cell induction in mice, intracellular cytokine staining (mERK2 9m epitope). To be noted: FIG. 6; comparing one to six tyrosines. As for the experimental part: Long chain peptide antigens MEN, all containing three types of mouse CD8+ T cell epitope sequences (MA p265 (Sequence No. 27), NY p81 (Sequence No. 29), and mERK2 9m (Sequence No. 28)), were synthesized. The interepitope sequences between the respective epitopes were one to six consecutive tyrosines (Sequence Nos. 1 and 9-12). Vaccines containing the respective long chain peptide antigens were administered to mice in the same manner as in FIG. 1 and the frequencies of CD8+ T cells specific to the respective epitope sequences were measured by the intracellular cytokine staining method.
Long chain peptide antigens MEN, all containing three types of mouse CD8+ T cell epitope sequences (MA p265 (Sequence No. 27), NY p81 (Sequence No. 29), and mERK2 9m (Sequence No. 28)), were synthesized. The interepitope sequences between the respective epitopes were five to ten consecutive tyrosines (Sequence Nos. 1 and 13-15). Vaccines containing the respective long chain peptide antigens were administered to mice in the same manner as in FIG. 1 and the frequencies of CD8+ T cells specific to the respective epitope sequences were measured by the intracellular cytokine staining method.
Each CHP/long chain peptide complex as the vaccine and the CpG oligo DNA as the adjuvant were administered at the same time to a mouse. Administration was performed by subcutaneous injection on the back of the mouse. As the dose, the CHP/long chain peptide complex was administered at 0.05 to 0.1 mg equivalent of long chain peptide per administration. The CpG oligo DNA was administered at 0.05 mg per administration. One week after the final administration, spleen cells were separated by the following procedure from each vaccine-administered mouse. The spleen was isolated from the mouse and removed of blood by rinsing with RPMI1640 medium. After the spleen was triturated using a glass slide, the released cells were collected in RPMI1640 medium. After centrifuging (400×g, 5 minutes, 4° C.), the supernatant was removed and the cells were treated for 1 minute by adding 2 mL of ACK solution. […]

From patent publication US11179450B2, “Long chain antigen containing interepitope sequence that promotes antigen presentation to T cells” (MIE UNIVERSITY, priority 2013, dated 2021) come the findings set out here.

As to “SNPARYEFLPPPPPPQYIHSANVLPPPPPPRGPESRLL (Long chain peptide antigen, containing three types of mouse CD8+ T cell epitope sequences (MA p265, NY p81, and mERK2 9m)) [MEN(P6)]”, the “fluorescence uptake into macrophages of the regional lymph node” value in assay [1] is recorded as “hardly observed”. In assay [2], the “induction of specific CD8+ T cells corresponding to all three types of epitopes” value was “clearly weak”. Further, the “growth of the tumor” value in assay [3] is listed as “significant suppression of tumor growth was not observed”.
Consider “SNPARYEFLGGGGGGQYIHSANVLGGGGGGRGPESRLL (Long chain peptide antigen, containing three types of mouse CD8+ T cell epitope sequences (MA p265, NY p81, and mERK2 9m)) [MEN(G6)]”, for which the “fluorescence uptake into macrophages of the regional lymph node” value in assay [1] was “hardly observed”. The “induction of specific CD8+ T cells corresponding to all three types of epitopes” value in assay [2] is given as “clearly weak”. Further, the “growth of the tumor” value in assay [3] is recorded as “significant suppression of tumor growth was not observed”.
For “QYIHSANVL [mERK2 9m, reference compound]”, the “growth of the tumor” value in assay [3] was “significant suppression of tumor growth was not observed”.
For the sequence “SNPARYEFLYYYYQYIHSANVLYYYYRGPESRLL (Long chain peptide antigen, containing three types of mouse CD8+ T cell epitope sequences (MA p265, NY p81, and mERK2 9m)) [MEN(Y4)]”, the “induction of specific CD8+ T cells, mERK2 9m (second epitope)” value in assay [4] is given as “highest”. For the same sequence, the “number of tyrosines of the interepitope sequence, judged in view of the results for the three types of epitopes” value in assay [2] (FIG. 6, comparing one to six tyrosines) was “satisfactory”.
